Laboratory results taken from ChEMBL document CHEMBL3396990, “Development of 1,3-diphenyladamantane derivatives as nonsteroidal progesterone receptor antagonists” (Bioorg Med Chem, 2015).
Active and inactive are the calls of the source. The calls are words filed in the database; no cut-off is given here.

How the values were obtained:
[1] = target: T1, Progesterone receptor (Homo sapiens) (UniProt P06401); assay: Agonist activity at PR in human T47D cells assessed as induction of alkaline phosphatase expression after 24 hrs by plate reader analysis; assay type: cell-based
T1 sequence (whole entry): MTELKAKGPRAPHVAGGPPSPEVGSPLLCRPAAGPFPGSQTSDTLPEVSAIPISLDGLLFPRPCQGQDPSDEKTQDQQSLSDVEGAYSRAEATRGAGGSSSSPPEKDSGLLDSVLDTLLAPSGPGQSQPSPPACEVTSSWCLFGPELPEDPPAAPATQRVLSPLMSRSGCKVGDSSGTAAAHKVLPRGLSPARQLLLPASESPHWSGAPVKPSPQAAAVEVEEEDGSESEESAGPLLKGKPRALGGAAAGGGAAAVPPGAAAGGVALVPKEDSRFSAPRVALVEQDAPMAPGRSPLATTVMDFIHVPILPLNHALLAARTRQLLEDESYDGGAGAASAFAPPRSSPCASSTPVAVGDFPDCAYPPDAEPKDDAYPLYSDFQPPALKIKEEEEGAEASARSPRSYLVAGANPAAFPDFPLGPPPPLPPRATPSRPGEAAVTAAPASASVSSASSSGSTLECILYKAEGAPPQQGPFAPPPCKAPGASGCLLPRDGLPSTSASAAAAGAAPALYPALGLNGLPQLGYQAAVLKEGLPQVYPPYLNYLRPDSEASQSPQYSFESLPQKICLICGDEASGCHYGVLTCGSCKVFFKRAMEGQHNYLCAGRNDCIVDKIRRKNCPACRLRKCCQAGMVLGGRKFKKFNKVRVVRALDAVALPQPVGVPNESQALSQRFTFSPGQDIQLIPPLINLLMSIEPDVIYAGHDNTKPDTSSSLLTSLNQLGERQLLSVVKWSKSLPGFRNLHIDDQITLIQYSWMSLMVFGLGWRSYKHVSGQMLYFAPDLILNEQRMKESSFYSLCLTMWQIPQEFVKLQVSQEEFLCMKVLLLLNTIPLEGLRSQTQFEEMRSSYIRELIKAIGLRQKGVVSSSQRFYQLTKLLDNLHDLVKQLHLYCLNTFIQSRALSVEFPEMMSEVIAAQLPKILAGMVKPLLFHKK

Progesterone receptor [2] = target: T2, Progesterone receptor (Homo sapiens, UniProt P06401); assay: Antagonist activity at PR in human T47D cells assessed as inhibition of progesterone-inducted alkaline phosphatase expression after 24 hrs by plate reader analysis; assay type: cell-based
T2 sequence (P06401 whole entry): T1 sequence (whole entry)

Progesterone receptor [3] = target: T2, Progesterone receptor; assay: Displacement of [1,2,6,7-3H]progesterone from human recombinant PR LBD after 24 hrs by liquid scintillation counting analysis

Activity [1]	IC50 (Progesterone receptor [2]) [nM]	IC50 (Progesterone receptor [3]) [nM]	SMILES
inactive	53	–	N#Cc1ccc(C23CC4CC(C2)CC(c2ccc([N+](=O)[O-])cc2)(C4)C3)cc1
inactive	36.2	–	COC(=O)N(C)c1ccc(C23CC4CC(CC(c5ccc(C#N)cc5)(C4)C2)C3)cc1
inactive	178	–	N#Cc1ccc(C23CC4CC(CC(c5ccc(N)cc5)(C4)C2)C3)cc1
inactive	404	–	N#Cc1ccc(C23CC4CC(C2)CC(c2ccc(NC(=O)c5ccccc5)cc2)(C4)C3)cc1
inactive	119	–	CS(=O)(=O)Nc1ccc(C23CC4CC(CC(c5ccc(C#N)cc5)(C4)C2)C3)cc1
inactive	58.4	–	CC(=O)Nc1ccc(C23CC4CC(CC(c5ccc(C#N)cc5)(C4)C2)C3)cc1
inactive	125	–	CCCCCC(=O)N(C)c1ccc(C23CC4CC(CC(c5ccc(C#N)cc5)(C4)C2)C3)cc1
inactive	25.8	53	CC(=O)N(C)c1ccc(C23CC4CC(CC(c5ccc(C#N)cc5)(C4)C2)C3)cc1
inactive	> 1000	–	N#Cc1ccc(C23CC4CC(C2)CC(c2ccc(N(Cc5ccccc5)Cc5ccccc5)cc2)(C4)C3)cc1
inactive	311	228	CN(C(=O)c1ccccc1)c1ccc(C23CC4CC(CC(c5ccc(C#N)cc5)(C4)C2)C3)cc1
inactive	74	–	CN(c1ccc(C23CC4CC(CC(c5ccc(C#N)cc5)(C4)C2)C3)cc1)S(C)(=O)=O
inactive	174	–	CCCCCC(=O)Nc1ccc(C23CC4CC(CC(c5ccc(C#N)cc5)(C4)C2)C3)cc1
inactive	39.5	–	CCN(C(C)=O)c1ccc(C23CC4CC(CC(c5ccc(C#N)cc5)(C4)C2)C3)cc1
inactive	25	> 10000	COC(=O)Nc1ccc(C23CC4CC(CC(c5ccc(C#N)cc5)(C4)C2)C3)cc1
